The experiment has as its system acetylcholine-induced bronchospasm. The experiment can be described thus: Bronchorelaxation in vivo: acetylcholine-induced bronchoconstriction in Brown Norway rats, RL and Cdyn (C-3.2). More on the design: species or system rat. Particulars: inhaled 60 minutes before provocation; tiotropium 1 μg/kg; comparative example 11 1, 10 and 100 μg/kg. The protocol: The bronchoconstriction model (see Hoymann H G. Lung function measurements in rodents in safety pharmacology studies. Front Pharmacol 2012; 3:156) used Male Brown Norway rats (Charles River, Sulzfeld, Germany; 10-12 weeks old) randomized to three treatment groups (comparative example 11, 1 μg/kg, 10 μg/kg, and 100 μg/kg; n=12-13), one positive control group (tiotropium 1 μg/kg; n=12), and one vehicle control group (n=17). Animals were treated with the inhaled test compounds 60 minutes before provocation. Comparative example 11, vehicle, or tiotropium were aerosolized using a micro feeding system and a dispersion nozzle operated with pressurized air. The aerosol concentration was determined by filter sampling with gravimetrical analysis and monitored continuously by a photometer. The lung-deposited doses were assessed from the inhalation dose (Raabe O G, Al-Bayati M A, Teague S V, Rasolt A. Regional Deposition of Inhaled Monodisperse Coarse and Fine Aerosol Particles in Small Laboratory Animals. The Annals of Occupational Hygiene 1988; 32:53-63.). […] After reaching a steady state in respiration, lung function of the spontaneously breathing animal was recorded as baseline values for ≥2 minutes; amongst other parameters, lung resistance (=RL) and dynamic compliance (=Cdyn) were used to assess bronchoconstriction. […]

The values that follow come from patent publication US12138256B2, “Treatment of cardiopulmonary disorders” (Bayer Aktiengesellschaft, priority 2021, dated 2024).

`C[N+]1(C)[C@@H]2C[C@@H](OC(=O)C(O)(c3cccs3)c3cccs3)C[C@H]1[C@@H]1O[C@@H]12` [tiotropium, reference compound]: the “bronchodilatory efficacy (RL)” value is on record as “inhibited acetylcholine-induced bronchospasm”.
